According to PubChem BioAssay (NCI):
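Protocol summary: plate cells (96-well), add compound at 5 concentrations, incubate 48 h, interpolate endpoints linearly. TGI denotes the concentration required for complete inhibition of growth.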

What was measured:
Assay in all cases: DTP human tumour cell line panel, 48 h
CCRF-CEM leukemia = system: CCRF-CEM leukemia
HCT-15 colon = system: HCT-15 colon
HT29 colon = system: HT29 colon
IGROV1 ovarian = system: IGROV1 ovarian
K-562 leukemia = system: K-562 leukemia
MALME-3M melanoma = system: MALME-3M melanoma
MOLT-4 leukemia = system: MOLT-4 leukemia
NCI-H23 lung = system: NCI-H23 lung
OVCAR-5 ovarian = system: OVCAR-5 ovarian
MDA-MB-435 = system: MDA-MB-435
SW-620 colon = system: SW-620 colon
MDA-N = system: MDA-N

Row | Structure (SMILES) | TGI (CCRF-CEM leukemia) [µM] | TGI (HCT-15 colon) [µM] | TGI (HT29 colon) [µM] | TGI (IGROV1 ovarian) [µM] | TGI (K-562 leukemia) [µM] | TGI (MALME-3M melanoma) [µM] | TGI (MOLT-4 leukemia) [µM] | TGI (NCI-H23 lung) [µM] | TGI (OVCAR-5 ovarian) [µM] | TGI (MDA-MB-435) [µM] | TGI (SW-620 colon) [µM] | TGI (MDA-N) [µM]
1 | O=C(Cc1csc(-c2nc(CC(=O)NNc3ccccc3)cs2)n1)NNc1ccccc1 | > 100 | > 100 | > 100 | > 100 | > 100 | > 100 | > 100 | > 100 | > 100 |  |  | 
2 | C=C(C)C1CC/C(C)=C/CC[C@]2(C)O[C@H]2CC/C(COC(C)=O)=C\[C@@H]1O (stereo partly drawn) | > 50 | > 50 | > 50 | > 50 | > 50 |  | > 50 | > 50 | > 50 | > 50 | > 50 | 
3 | CC1(C)CC(=O)C2=C(C1)NC1=C(C(=O)CC(C)(C)C1)C2c1ccc([N+](=O)[O-])cc1 |  | > 100 | > 100 | > 100 | > 100 |  | > 100 | > 100 | > 100 | > 100 | > 100 | > 100
4 | COP(=O)(Cc1ccccc1)Cc1ccccc1 | > 100 | > 100 | > 100 | > 100 | > 100 | > 100 | > 100 | > 100 | > 100 |  | > 100 | 
5 | CS(=O)(=O)c1c(N)c2nc(Cl)cn2c2nc3ccccc3nc12 | > 100 | > 100 | > 100 | > 100 | > 100 | > 100 | > 100 | > 100 | > 100 |  | > 100 | 
6 | COc1cc(C=C2C(C)=NN(c3cccc(Cl)c3)C23C(Cl)C(=O)N3c2nc3ccccc3s2)ccc1O (stereo not drawn) | 38.8 | 52.2 | 26.7 | 48.4 | 25.2 |  | 21.1 | 57.4 | 50.9 | 35.1 | 26 | 74.7
7 | CCOC(=O)Cc1csc2[n+]1C(=O)/C(=C/c1cccc(OC)c1O)S2 |  | > 100 | > 100 | > 100 |  |  | > 100 | > 100 | > 100 | 50.5 | > 100 | > 100
8 | Cc1oc(N)c(S(=O)(=O)c2ccc(Cl)cc2)c1C | > 100 | > 100 | > 100 | > 100 | > 100 | > 100 | > 100 | > 100 | > 100 | > 100 | > 100 | 
9 | O=C1N2CCc3c([nH]c4ccccc34)C23CC2CCCCC12S3 (stereo not drawn) |  | > 100 | > 100 | > 100 | > 100 | > 100 | > 100 | > 100 | > 100 | > 100 | > 100 | > 100
10 | CC(=O)c1ccc2c(ccc(=O)n2C)c1 | > 100 | > 100 | > 100 | > 100 | > 100 | > 100 | > 100 | > 100 | > 100 |  | > 100 | 
11 | CC1(C)CC23CC(C)(C)c4cccc(c42)OCc2ccc4ccc5ccc(nc5c4n2)COc2cccc1c23 |  | > 50 | > 50 | > 50 | > 50 |  | > 50 |  | > 50 | > 50 | > 50 | > 50
12 | c1ccc(P(CCP(c2ccccn2)c2ccccn2)c2ccccc2)cc1 |  | > 100 | > 100 |  | > 100 | > 100 | > 100 | > 100 | > 100 | > 100 | > 100 | > 100
13 | C/C1=C/C(C)CC(C)OC(=O)C(C)NC(=O)C(Cc2ccc(O)c(I)c2)N(C)C(=O)C(C)NC(=O)C(C)C1 (stereo not drawn) |  | 12.1 | > 40.7 | < 0.01 | > 40.8 | 3.45 | 23.7 | 44.4 | > 100 | 16 | > 100 | 30.7
14 | O=C(Cc1csc(N=Nc2c(O)[nH]c3ccccc23)n1)Nc1ccccc1 |  | > 100 | 59 | 30.5 |  |  | > 100 | > 100 | > 100 | > 100 | > 100 | 
15 | CCN1C[C@]2(C)CC[C@H](OC)C34C1C([C@H](OC(C)=O)[C@@H]32)[C@@]1(OC)C[C@H](OC)[C@H]2C[C@@H]4[C@@H]1[C@H]2O | > 100 | > 100 | > 100 | > 100 | > 100 | > 100 | > 100 | > 100 | > 100 |  | > 100 | 
16 | CCOC(=O)Cc1csc2[n+]1C(=O)/C(=C\c1cccc(Cl)c1Cl)S2 | 37.8 | 31.9 | 41.2 | 50.6 |  |  | 33.5 | 48.9 | > 100 | > 100 | 56.6 | 56.6
17 | NC(=O)c1coc(C2OC(CO)C(O)C2O)n1 (stereo not drawn) | > 100 | > 100 | > 100 | > 100 | > 100 | > 100 | > 100 | > 100 | > 100 |  | > 100 | 
18 | CCOC(=O)c1c(C)cc(=O)n2c1[nH]c1ccccc12 | > 100 | > 100 | > 100 | > 100 | > 100 | > 100 | > 100 | > 100 | > 100 |  | > 100 | > 100
19 | CCN(CC)CCCC(C)Nc1ccnc2ccc3nn(C)nc3c12 (stereo not drawn) | > 100 |  | > 100 | > 100 | 86.3 | > 100 | > 100 | > 100 | > 100 |  | 75.7 | 
20 | Clc1ccccc1C1=NN(c2ccccc2)C2c3ccccc3OCC12 (stereo not drawn) | > 100 |  | > 100 | > 100 | > 100 | > 100 | > 100 | > 100 | > 100 |  | > 100 | 
